{"source": "paper PMC12336229", "about": "“Peptide-mimetics derived from leucyl-tRNA synthetase are potential agents for the therapy of mt-tRNA related diseases” (Frontiers in Pharmacology, 2025)", "key": {"[1]": {"tested_on": "Adult C57BL/6 male mice", "test": "Morphological analysis of selected organs (hematoxylin and eosin)", "type": "in vivo, mouse", "conditions": "1, 5 and 10 mg/kg i.v.; hematoxylin and eosin sections; treated vs controls", "method": "(§1) After the test, mice were sacrificed under general anaesthesia (4% isoflurane in medical air) by cardiac puncture to withdraw blood, brain, heart, liver, kidney, spleen, and lymph nodes, which were collected into tubes with buffered formalin and stored at +4°C.\nAt the end of the tolerability test, tissues collected from animals injected with saline (n = 5) or treated with 1, 5 and 10 mg/kg of PMT (n = 10), were formalin-fixed and paraffin-embedded. Five µm-thick sections were obtained from the paraffin blocks and stained with hematoxylin and eosin for histologic examination."}, "[2]": {"tested_on": "mutant cybrids", "test": "Confocal fluorescence microscopy, co-localization with mitochondria (Mitotracker Red)", "type": "cell-based, human", "method": "(§2) Previously established osteosarcoma-derived (143B.TK-) cybrid cell lines from patients, which bear either the m.3243A>G mutation in mt-tRNA^Leu(UUR) or the m.8344A>G mutation in mt-tRNA^Lys and controls ([Perli et al., 2014]; [Perli et al., 2016]; [Perli et al., 2020]) were used.\nConstructs made of compounds listed in Table 1, comprising D-peptides linked to the Cy5 fluorophore via maleimide cross-linker, were administered to sub-confluent cybrid cell cultures at 0.25 µM in glucose medium. About 24 h after treatment with each construct, cells were incubated with 200 nM Mitotracker Red FM (LifeTechnologies Italia, Monza, Italy) for 30 min at 37°C.\nSubsequently, cells were visualized by confocal microscopy. Images of 800 × 800 px (at 88 nm/px) were acquired at the Olympus iX83 FluoView1200 laser scanning confocal microscope using a 60 × NA1,35 oil objective (Olympus Italia SRL Milano, Italy), zoom 3×, 559 nm, and 635 nm lasers and filter setting for Mitotracker Red and Cy5. The fluorescence images were analysed with the ImageJ software ([Rasband, 2018]) to determine the Pearson’s correlation coefficient.\nFor a subset of experiments, we evaluated the mt localization of constructs up to 72 h after treatment. PMT and PMT fragments were administered to sub-confluent cybrids at a concentration of 0.25 µM in the glucose medium. At 24-, 48- and 72-h after treatment, cells were incubated with Mitotracker Red and visualized by confocal microscopy. After each confocal imaging section, a fresh glucose medium was added to the cells, which were maintained under standard conditions (a humidified atmosphere of 95% air and 5% CO2 at 37°C)."}, "[3]": {"tested_on": "Adult C57BL/6 male mice", "test": "Tolerability in animals (i.v., scores, body weight, grid-hanging test)", "type": "in vivo", "method": "Sixty adult C57BL/6 male mice were initially included in the study. Twenty animals were dedicated to in vivo/ex vivo biodistribution of the radiolabelled PMT ^64Cu-PMT. The evaluation was carried out at four time points: 1, 3, 24 and 48 h. Forty animals were dedicated to tolerability studies with increasing PMT concentration: 1, 5, 10 and 50 mg/kg PMT or saline, i. v. (n = 10 per group). […] Therefore, only three groups of ten animals were dedicated to the tolerability test, and fifty C57BL/6 male mice were employed for the current study in total. […] Due to the rapidity of death, and the hydrophobic character of the C-terminal region of the PMT (see the Discussion section), it is possible that PMT aggregates obstructed one or more small vessels, causing micro-infarctions in vital organs (e.g., lung, heart, brain).\nAdult C57BL/6 male mice were used to determine the general tolerability of i. v. administered PMT and identify the Maximum Tolerated Dose (MTD). To this purpose, animals were divided into four groups (n = 10 each) and injected in a tail vein with either saline (controls) or PMT freshly dissolved in saline at three scalar doses (1, 5 or 10 mg/kg). Each group was randomly divided in two subgroups (n = 5 each). Blood ocular withdrawal was performed at 1 h and 48 h post-injection for each subgroup, respectively. During this procedure, animals were anaesthetized with isoflurane (2% in medical air) and monitored until awakening.\nThe effect of PMT administration was evaluated every 2 days by observation of the animals and application of the following criteria and scores (see Supplementary Table S1): body weight loss (score: 1–5); coat conditions (score: 1–3); dehydration (score: 1–3); respiration (score: 1–3); spontaneous behaviour (score: 0–5); reaction to handling (score: 0–3) (IACUC of the San Raffaele Research Institute and FELASA Glossary 2015 ([Fentener van Vlissingen et al., 2015]).\nThe observation was carried out for 2 weeks post peptide injection. At the end, all the animals underwent a grid-hanging test to measure muscular strength performances after PMT or saline treatment ([Gayi et al., 2018]).\nAfter a period of habituation to the metallic grid, mice were placed individually on top of a metallic grid (40 × 40 cm, 1.3 cm square mesh) suspended 50 cm above an empty cage. The grid was turned upside down and latency to fall was measured up to a fixed limit of 600 s. Each mouse performed three trials and the longest holding time (s) among them was multiplied by the animal’s body weight (g) to calculate Holding impulse (g*s).\nas §1\nData on PMT tolerability in animals (i.e., body mass monitoring and grip-hanging test) are expressed as mean ± SD and analysed using one-way ANOVA corrected for multiple comparison Turkey test."}, "[4]": {"tested_on": "control cells (WT and L-8344 cybrids)", "test": "Respirometry assay, oxygen consumption rate (Clark type oxygen electrode)", "type": "cell-based, human", "conditions": "after 36 h, treated/vehicle ratio", "method": "as §2\n(§3) Oxygen consumption rate (OCR) of cybrids was evaluated with Clark type oxygen electrode (Hansatech Instruments, Norfolk, United Kingdom). After cybrid incubation with compounds at 5 µM concentration, both control and mutant cybrids were maintained in glucose medium for 36 h, then OCR was measured in intact cells (3 × 10^6) in 1 mL DMEM lacking glucose supplemented with […]."}, "[5]": {"tested_on": "m.3243A>G mutant cybrids", "test": "Respirometry assay, oxygen consumption rate (Clark type oxygen electrode)", "type": "cell-based, human", "conditions": "5 µM; after 36 h of treatment; compared with vehicle mutant cells", "method": "as §2, §3"}, "[6]": {"tested_on": "m.8344A>G mutant cybrids (H-8344)", "test": "Respirometry assay, oxygen consumption rate (Clark type oxygen electrode)", "type": "cell-based, human", "conditions": "5 µM; after 36 h of treatment; compared with vehicle mutant cells", "method": "as §2, §3"}}}
{"smiles": "CC[C@@H](C)[C@@H](NC(=O)[C@@H](CC(C)C)NC(=O)[C@@H](C)NC(=O)[C@H](NC(=O)[C@@H](CCCNC(=N)N)NC(=O)[C@H]1CCCN1C(=O)[C@@H](CO)NC(=O)[C@@H](CC(C)C)NC(=O)[C@@H](Cc1ccccc1)NC(=O)[C@@H](CO)NC(=O)[C@@H](CCCCN)NC(=O)[C@H](N)CCCCN)[C@H](C)O)C(=O)N[C@H](CC(N)=O)C(=O)N[C@H](Cc1ccccc1)C(=O)N[C@H](CC(C)C)C(=O)N[C@@H](C(N)=O)C(C)C", "note": "[PMT]", "values": [{"measurement": "Morphological change in organs or tissues", "setting": "[1]", "result": "did not reveal any morphological change"}, {"measurement": "Pearson's correlation coefficient (PCC), mt localization", "setting": "[2]; Cy5 constructs 0.25 µM in glucose medium, imaged after 24 h, Mitotracker Red, mean ± SEM of at least five images", "result": "0.83 ± 0.02"}, {"measurement": "Mitochondrial localization over time", "setting": "[2]; Cy5 constructs 0.25 µM, imaged after 24, 48 and 72 hours", "result": "colocalize with mitochondria up to 72 hours"}, {"measurement": "Tolerability after a single i.v. acute administration", "setting": "[3]; 1, 5 and 10 mg/kg, wild-type mice, 14 days of observation", "result": "well tolerated"}, {"measurement": "Mice with decrease of body weight (score 4)", "setting": "[3]; mouse, in vivo", "result": "1/10"}, {"measurement": "Mice with mild tachypnoea (score 1)", "setting": "[3]; mouse, in vivo", "result": "5/10"}, {"measurement": "Mice with slight decrease of body weight (score 1)", "setting": "[3]; mouse, in vivo", "result": "5/10"}, {"measurement": "Mice with slight decrease of body weight (score 1–2)", "setting": "[3]; mouse, in vivo", "result": "5/10"}, {"measurement": "Outcome of the highest dose", "setting": "[3]; mouse, in vivo", "result": "died immediately after the administration"}, {"measurement": "Safe dosage", "setting": "[3]; mouse, in vivo, iv", "result": "up to 10 mg/kg"}, {"measurement": "Necropsy finding", "setting": "[3]; mouse, in vivo, iv, 50 mg/kg", "result": "did not highlight any obvious macroscopic effect"}, {"measurement": "Oxygen consumption of control cells", "setting": "[4]", "result": "do not affect"}, {"measurement": "Oxygen consumption rate", "setting": "[5]", "result": "significant increase"}, {"measurement": "Oxygen consumption rate", "setting": "[6]", "result": "significant increase"}]}
